Data as given in patent US10738028B2, “Spiro three-membered ring, spiro five-membered ring peptide deformylase inhibitor and use thereof in antibacteria and anti-tumor” (priority 2016, dated 2020).
Read-outs that look alike come from different tables or passages of the source.

Tests used:
Format in all cases: cell-based
[1] = system: Enterococcus faecalis (EFA); assay: MIC, two-fold agar dilution (CLSI), clinical isolates
Method in brief: (§1)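 Susceptibility was tested using CLSI two-fold agar dilution against the strains examined.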

[2] = system: Enterococcus faecium (EFM); assay: as above
Method in brief: as §1

[3] = system: Escherichia coli (including ESBLs, non-ESBLs); assay: as above
Method in brief: as §1

[4] = system: Moraxella catarrhalis (BCA); assay: as above
Method in brief: as §1

[5] = system: Streptococcus pneoumoniae (SPN); assay: as above
Method in brief: as §1

[6] = system: methicillin-resistant Staphylococcus aureus (MRSA); assay: as above
Method in brief: as §1

[7] = system: methicillin-resistant Staphylococcus epidermidis (MRSE); assay: as above
Method in brief: as §1

[8] = system: methicillin-sensitive Staphylococcus aureus (MSSA); assay: as above
Method in brief: as §1

[9] = system: methicillin-sensitive Staphylococcus epidermidis (MSSE); assay: as above
Method in brief: as §1

[10] = system: HCT-116 colorectal cancer cell line; assay: CCK-8 proliferation inhibition; settings: Homo sapiens, 72 hours, CCK-8; for inhibition at 30 µM: HCT-116, 72 h, concentration of 30 μM
Method in brief: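 Cells seeded at 2000 cells/well, cultured overnight at 37 °C, 5% CO2, then exposed to compound (DMSO; control 1‰ DMSO) for 72 h in McCoy's 5A with 10% newborn bovine serum. Viability read with 1:10 diluted CCK-8.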

[11] = system: A549 lung cancer cell line; assay: CCK-8 proliferation inhibition; settings: Homo sapiens
Method in brief: (§2)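 Plating at 2000 cells/well, then incubation overnight at 37° C. Next, a range of compound concentrations for 72 hours (control 1‰ DMSO). Finally, medium decanted and CCK-8 diluted 1:10 added.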

[12] = system: BEL-7402 liver cancer cell line; assay: CCK-8 proliferation inhibition
Method in brief: as §2

[13] = system: MGC-803 gastric cancer cell line; assay: CCK-8 proliferation inhibition; settings: Homo sapiens
Method in brief: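 Cells seeded at 2000 cells/well, cultured overnight at 37 °C, 5% CO2, then exposed 72 h to compound dilutions in medium with 10% newborn bovine serum (1‰ DMSO control). Viability read with 1:10 diluted CCK-8 solution. Media: PC3 in F12; MGC-803 and Jurkat in 1640; MCF-7 in DMEM high glucose.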

Structure (SMILES): CCCC[C@H](CC(=O)NO)C(=O)N1CC2(CC2)C[C@H]1C(=O)Nc1cc(C(C)(C)C)on1 [Example 55]
- Anti-bacterial activity (MIC), strain EFA 15-1 ([1]; clinical isolate EFA 15-1): > 32 µg/mL
- Anti-bacterial activity (MIC), strain EFA 15-2 ([1]; clinical isolate EFA 15-2): > 32 µg/mL
- Anti-bacterial activity (MIC), strain EFA 15-3 ([1]; clinical isolate EFA 15-3): > 32 µg/mL
- Anti-bacterial activity (MIC), strain EFA 15-4 ([1]; clinical isolate EFA 15-4): > 32 µg/mL
- Anti-bacterial activity (MIC), strain EFA 15-5 ([1]; clinical isolate EFA 15-5): > 32 µg/mL
- Anti-bacterial activity (MIC), strain EFA 15-6 ([1]; clinical isolate EFA 15-6): > 32 µg/mL
- Anti-bacterial activity (MIC), strain EFA 15-9 ([1]; clinical isolate EFA 15-9): 8 µg/mL
- Anti-bacterial activity (MIC), strain EFM 15-1 ([2]; clinical isolate EFM 15-1): > 32 µg/mL
- Anti-bacterial activity (MIC), strain EFM 15-2 ([2]; clinical isolate EFM 15-2): > 32 µg/mL
- Anti-bacterial activity (MIC), strain EFM 15-3 ([2]; clinical isolate EFM 15-3): > 32 µg/mL
- Anti-bacterial activity (MIC), strain EFM 15-4 ([2]; clinical isolate EFM 15-4): > 32 µg/mL
- Anti-bacterial activity (MIC), strain EFM 15-5 ([2]; clinical isolate EFM 15-5): 0.5 µg/mL
- Anti-bacterial activity (MIC), strain EFM 15-6 ([2]; clinical isolate EFM 15-6): 2 µg/mL
- Anti-bacterial activity (MIC), strain ECO+ 15-1 ([3]; clinical isolate ECO+ 15-1): 32 µg/mL
- Anti-bacterial activity (MIC), strain ECO+ 15-2 ([3]; clinical isolate ECO+ 15-2): > 32 µg/mL
- Anti-bacterial activity (MIC), strain ECO+ 15-3 ([3]; clinical isolate ECO+ 15-3): > 32 µg/mL
- Anti-bacterial activity (MIC), strain ECO+ 15-4 ([3]; clinical isolate ECO+ 15-4): 1 µg/mL
- Anti-bacterial activity (MIC), strain ECO− 15-1 ([3]; clinical isolate ECO− 15-1): > 32 µg/mL
- Anti-bacterial activity (MIC), strain ECO− 15-2 ([3]; clinical isolate ECO− 15-2): > 32 µg/mL
- Anti-bacterial activity (MIC), strain ECO− 15-3 ([3]; clinical isolate ECO− 15-3): > 32 µg/mL
- Anti-bacterial activity (MIC), strain ECO− 15-4 ([3]; clinical isolate ECO− 15-4): > 32 µg/mL
- Anti-bacterial activity (MIC), strain BCA 14-1 ([4]; clinical isolate BCA 14-1): 4 µg/mL
- Anti-bacterial activity (MIC), strain BCA 14-4 ([4]; clinical isolate BCA 14-4): 4 µg/mL
- Anti-bacterial activity (MIC), strain BCA 14-5 ([4]; clinical isolate BCA 14-5): 1 µg/mL
- Anti-bacterial activity (MIC), strain BCA 14-6 ([4]; clinical isolate BCA 14-6): 2 µg/mL
- Anti-bacterial activity (MIC), strain BCA 14-7 ([4]; clinical isolate BCA 14-7): 4 µg/mL
- Anti-bacterial activity (MIC), strain BCA 14-8 ([4]; clinical isolate BCA 14-8): 4 µg/mL
- Anti-bacterial activity (MIC), strain BCA 14-10 ([4]; clinical isolate BCA 14-10): 4 µg/mL
- Anti-bacterial activity (MIC), strain SPN 16-2 ([5]; clinical isolate SPN 16-2): 1 µg/mL
- Anti-bacterial activity (MIC), strain SPN 16-4 ([5]; clinical isolate SPN 16-4): 1 µg/mL
- Anti-bacterial activity (MIC), strain MRSA 15-1 ([6]; clinical isolate MRSA 15-1): 0.25 µg/mL
- Anti-bacterial activity (MIC), strain MRSA 15-2 ([6]; clinical isolate MRSA 15-2): 0.5 µg/mL
- Anti-bacterial activity (MIC), strain MRSA 15-3 ([6]; clinical isolate MRSA 15-3): 0.5 µg/mL
- Anti-bacterial activity (MIC), strain MRSA 15-4 ([6]; clinical isolate MRSA 15-4): 0.5 µg/mL
- Anti-bacterial activity (MIC), strain MRSE 15-1 ([7]; clinical isolate MRSE 15-1): 1 µg/mL
- Anti-bacterial activity (MIC), strain MRSE 15-2 ([7]; clinical isolate MRSE 15-2): 1 µg/mL
- Anti-bacterial activity (MIC), strain MRSE 15-3 ([7]; clinical isolate MRSE 15-3): 1 µg/mL
- Anti-bacterial activity (MIC), strain MRSE 15-7 ([7]; clinical isolate MRSE 15-7): 1 µg/mL
- Anti-bacterial activity (MIC), strain MSSA 15-3 ([8]; clinical isolate MSSA 15-3): 0.5 µg/mL
- Anti-bacterial activity (MIC), strain MSSA 15-4 ([8]; clinical isolate MSSA 15-4): 1 µg/mL
- Anti-bacterial activity (MIC), strain MSSA 15-5 ([8]; clinical isolate MSSA 15-5): 1 µg/mL
- Anti-bacterial activity (MIC), strain MSSA 15-6 ([8]; clinical isolate MSSA 15-6): > 32 µg/mL
- Anti-bacterial activity (MIC), strain MSSE 15-3 ([9]; clinical isolate MSSE 15-3): 1 µg/mL
- Anti-bacterial activity (MIC), strain MSSE 15-4 ([9]; clinical isolate MSSE 15-4): 1 µg/mL
- Anti-bacterial activity (MIC), strain MSSE 15-5 ([9]; clinical isolate MSSE 15-5): 1 µg/mL
- Anti-bacterial activity (MIC), strain MSSE 15-6 ([9]; clinical isolate MSSE 15-6): 1 µg/mL
- inhibition at 30 µM ([10]; Table 5, read-out: Inhibition of proliferation, Colorectal cancer HCT116): ≥ 30%
- inhibition at 30 µM ([10]; read-out: HCT116 inhibition rate/%): 30%
- IC50 ([10]; HCT-116): 15.2 µM
- inhibition at 30 µM ([11]; A549, 72 h, concentration of 30 μM): 49%
- IC50 ([11]; A549, 72 hours): 12.1 µM
- inhibition at 30 µM ([12]; Homo sapiens, Bel-7402, 72 h, concentration of 30 μM): > 50%
- IC50 ([12]; Homo sapiens, Bel-7402, 72 hours): 25.9 µM
- Inhibition of proliferation, Liver cancer BEL-7402 ([12]; concentration of 30 μM, 72 hours, 30 µM): 59%
- inhibition at 30 µM ([13]; MGC-803, 72 h, concentration of 30 μM): 33%
- IC50 ([13]; MGC-803, 72 hours): 29.5 µM
